Reference: patent US20040087633A1, “Methylidene oxazolidinone compound and preparation method thereof” (Korea Institute of Science and Technology, priority 2002, published 2004)
Converted amounts (≈) assume the structure as drawn.

How the values were obtained:
Experiment in all cases: Anti-microbial activity test in vitro (agar dilution MIC)
E. faecium C2252 = format: cell-based; settings: E. faecium C2252; Agar Dilution method, Mueller Hinton Agar, 18 hours at 37° C.
How it was run: (§1)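 Agar dilution on Mueller Hinton agar with twofold serial compound dilutions; strains grown 18 h at 37 °C. MIC (μg/ml) read visually.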

E. faecalis ATCC29212 = format: cell-based; settings: E. faecalis ATCC29212; Agar Dilution method, Mueller Hinton Agar, 18 hours at 37° C.
How it was run: as §1

S. epidermidis C2230 = format: cell-based; settings: S. epidermidis C2230; Agar Dilution method, Mueller Hinton Agar, 18 hours at 37° C.
How it was run: as §1

S. epidermidis ATCC12228 = format: cell-based; settings: S. epidermidis ATCC12228; Agar Dilution method, Mueller Hinton Agar, 18 hours at 37° C.
How it was run: as §1

E. faecalis C6291 = format: cell-based; settings: E. faecalis C6291; Agar Dilution method, Mueller Hinton Agar, 18 hours at 37° C.
How it was run: as §1

E. faecalis C6288 = format: cell-based; settings: E. faecalis C6288; Agar Dilution method, Mueller Hinton Agar, 18 hours at 37° C.
How it was run: as §1

S. pyogenes C6003 = format: cell-based; settings: S. pyogenes C6003; Agar Dilution method, Mueller Hinton Agar, 18 hours at 37° C.
How it was run: as §1

S. aureus ATCC 29213 = format: cell-based; settings: Agar Dilution method, Mueller Hinton Agar, 18 hours at 37° C.
How it was run: as §1

S. pyogenes C6012 = format: cell-based; settings: S. pyogenes C6012; Agar Dilution method, Mueller Hinton Agar, 18 hours at 37° C.
How it was run: as §1

S. pyogenes ATCC8668 = format: cell-based; settings: S. pyogenes ATCC8668; Agar Dilution method, Mueller Hinton Agar, 18 hours at 37° C.
How it was run: as §1

E. faecium C6301 = format: cell-based; settings: E. faecium C6301; Agar Dilution method, Mueller Hinton Agar, 18 hours at 37° C.
How it was run: as §1

S. epidermidis C2235 = format: cell-based; settings: S. epidermidis C2235; Agar Dilution method, Mueller Hinton Agar, 18 hours at 37° C.
How it was run: as §1

VRE C6487 = format: cell-based, Enterococcus faecium; settings: VRE C6487; Agar Dilution method, Mueller Hinton Agar, 18 hours at 37° C.
How it was run: as §1

VRE C6488 = format: cell-based, Enterococcus faecium; settings: VRE C6488; Agar Dilution method, Mueller Hinton Agar, 18 hours at 37° C.
How it was run: as §1

CRSA C1062 = format: cell-based, Staphylococcus aureus; settings: CRSA C1062; Agar Dilution method, Mueller Hinton Agar, 18 hours at 37° C.
How it was run: as §1

MSSA C7142 = format: cell-based, Staphylococcus aureus; settings: MSSA C7142; Agar Dilution method, Mueller Hinton Agar, 18 hours at 37° C.
How it was run: as §1

MRSA C2207 = format: cell-based, Staphylococcus aureus; settings: MRSA C2207; Agar Dilution method, Mueller Hinton Agar, 18 hours at 37° C.
How it was run: as §1

MRSA C5100 = format: cell-based, Staphylococcus aureus; settings: MRSA C5100; Agar Dilution method, Mueller Hinton Agar, 18 hours at 37° C.
How it was run: as §1

MSSA C2214 = format: cell-based, Staphylococcus aureus; settings: MSSA C2214; Agar Dilution method, Mueller Hinton Agar, 18 hours at 37° C.
How it was run: as §1

CRSA C6043 = format: cell-based, Staphylococcus aureus; settings: CRSA C6043; Agar Dilution method, Mueller Hinton Agar, 18 hours at 37° C.
How it was run: as §1

MRSA C6068 = format: cell-based, Staphylococcus aureus; settings: MRSA C6068; Agar Dilution method, Mueller Hinton Agar, 18 hours at 37° C.
How it was run: as §1

SMILES | Minimum inhibition concentration (MIC) (E. faecium C2252) [mg/L] | Minimum inhibition concentration (MIC) (E. faecalis ATCC29212) [mg/L] | Minimum inhibition concentration (MIC) (S. epidermidis C2230) [mg/L] | Minimum inhibition concentration (MIC) (S. epidermidis ATCC12228) [mg/L] | Minimum inhibition concentration (MIC) (E. faecalis C6291) [mg/L] | Minimum inhibition concentration (MIC) (E. faecalis C6288) [mg/L] | Minimum inhibition concentration (MIC) (S. pyogenes C6003) [mg/L] | Minimum inhibition concentration (MIC) (S. aureus ATCC 29213) [mg/L] | Minimum inhibition concentration (MIC) (S. pyogenes C6012) [mg/L] | Minimum inhibition concentration (MIC) (S. pyogenes ATCC8668) [mg/L] | Minimum inhibition concentration (MIC) (E. faecium C6301) [mg/L] | Minimum inhibition concentration (MIC) (S. epidermidis C2235) [mg/L] | Minimum inhibition concentration (MIC) (VRE C6487) [mg/L] | Minimum inhibition concentration (MIC) (VRE C6488) [mg/L] | Minimum inhibition concentration (MIC) (CRSA C1062) [mg/L] | Minimum inhibition concentration (MIC) (MSSA C7142) [mg/L] | Minimum inhibition concentration (MIC) (MRSA C2207) [mg/L] | Minimum inhibition concentration (MIC) (MRSA C5100) [mg/L] | Minimum inhibition concentration (MIC) (MSSA C2214) [mg/L] | Minimum inhibition concentration (MIC) (CRSA C6043) [mg/L] | other results
CC(=O)NC[C@H]1CN(c2ccc(N3CCC(=CC=NO)CC3)c(F)c2)C(=O)O1 [Compound 18, N-[[(5S)-3-[3-fluoro-4-(4-(2-hydroxyiminoethylidene)-piperidinyl)phenyl]-2-oxo-5-oxazolidinyl]methyl]acetamide] | 4 (≈ 10.2 µM) | 8 (≈ 20.5 µM) | 4 (≈ 10.2 µM) | 1 (≈ 2.56 µM) | 4 (≈ 10.2 µM) | 4 (≈ 10.2 µM) | 4 (≈ 10.2 µM) | 8 (≈ 20.5 µM) | 1 (≈ 2.56 µM) | 2 (≈ 5.12 µM) | 4 (≈ 10.2 µM) | 4 (≈ 10.2 µM) | 4 (≈ 10.2 µM) | 4 (≈ 10.2 µM) | 8 (≈ 20.5 µM) | 8 (≈ 20.5 µM) | 8 (≈ 20.5 µM) | 4 (≈ 10.2 µM) | 8 (≈ 20.5 µM) | 8 (≈ 20.5 µM) | Minimum inhibition concentration (MIC) (MRSA C6068): 4 mg/L (≈ 10.2 µM)
CC(=O)NC[C@H]1CN(c2ccc(N3CCC(=Cc4cc(-c5csnc5C)no4)CC3)c(F)c2)C(=O)O1 [Compound 10, N-[[(5S)-3-[3-fluoro-4-((4-(3-(3-methyl-isothiazol-4-yl)-iso-xazolyl)methylidene)piperidinyl)phenyl]-2-oxo-5-oxazolidinyl]methyl]acetamide] | 8 (≈ 15.6 µM) | 16 (≈ 31.3 µM) | 4 (≈ 7.82 µM) | 2 (≈ 3.91 µM) | 8 (≈ 15.6 µM) | 16 (≈ 31.3 µM) | 8 (≈ 15.6 µM) | 16 (≈ 31.3 µM) | 2 (≈ 3.91 µM) | 2 (≈ 3.91 µM) | 8 (≈ 15.6 µM) | 4 (≈ 7.82 µM) | 4 (≈ 7.82 µM) | 8 (≈ 15.6 µM) | 16 (≈ 31.3 µM) | 8 (≈ 15.6 µM) | 16 (≈ 31.3 µM) | 8 (≈ 15.6 µM) | 16 (≈ 31.3 µM) | 16 (≈ 31.3 µM) | Minimum inhibition concentration (MIC) (MRSA C6068): 8 mg/L (≈ 15.6 µM)
CC(=O)NC[C@H]1CN(c2ccc(N3CCC(=C(C)C#N)CC3)c(F)c2)C(=O)O1 [Compound 16, N-[[(5S)-3-[3-fluoro-4-(4-(1-cyanoethylidene)piperidinyl)-phenyl]-2-oxo-5-oxazolidinyl]methyl]acetamide] | 2 (≈ 5.18 µM) | 2 (≈ 5.18 µM) | 2 (≈ 5.18 µM) | 0.5 (≈ 1.29 µM) | 2 (≈ 5.18 µM) | 2 (≈ 5.18 µM) | 0.5 (≈ 1.29 µM) | 2 (≈ 5.18 µM) | 2 (≈ 5.18 µM) | 2 (≈ 5.18 µM) | 2 (≈ 5.18 µM) | 2 (≈ 5.18 µM) | 0.5 (≈ 1.29 µM) | 1 (≈ 2.59 µM) | 2 (≈ 5.18 µM) | 2 (≈ 5.18 µM) | 2 (≈ 5.18 µM) | 2 (≈ 5.18 µM) | 2 (≈ 5.18 µM) | 2 (≈ 5.18 µM) | Minimum inhibition concentration (MIC) (MRSA C6068): 2 mg/L (≈ 5.18 µM)
CCOC(=O)C(C)=C1CCN(c2ccc(N3C[C@H](CNC(C)=O)OC3=O)cc2F)CC1 [Compound 13, N-[[(5S)-3-[3-fluoro-4-(4-(1-ethoxycarbonylethylidene)-piperidinyl)phenyl]-2-oxo-5-oxazolidinyl]methyl]acetamide] | 8 (≈ 18.5 µM) | 16 (≈ 36.9 µM) | 16 (≈ 36.9 µM) | 4 (≈ 9.23 µM) | 8 (≈ 18.5 µM) | 16 (≈ 36.9 µM) | 4 (≈ 9.23 µM) | 16 (≈ 36.9 µM) | 16 (≈ 36.9 µM) | 8 (≈ 18.5 µM) | 8 (≈ 18.5 µM) | 8 (≈ 18.5 µM) | 1 (≈ 2.31 µM) | 8 (≈ 18.5 µM) | 16 (≈ 36.9 µM) | 8 (≈ 18.5 µM) | 16 (≈ 36.9 µM) | 8 (≈ 18.5 µM) | 16 (≈ 36.9 µM) | 8 (≈ 18.5 µM) | Minimum inhibition concentration (MIC) (MRSA C6068): 8 mg/L (≈ 18.5 µM)
